Patent US11883422B2, “Glycan therapeutic compositions and related methods thereof” (DSM Nutritional Products, LLC, priority 2015, dated 2024)

System: colonic propulsion in morphine-treated mice
Assay: Mouse model of opioid-induced constipation: colonic propulsion (bead expulsion) after morphine
Format: in vivo
Method: This study was conducted to analyze the effects of glycan therapeutics in a mouse model of opioid-induced constipation. In this model, normal mice are dosed with glycan or control for several days and then administered a dose of morphine sufficient to produce decreased gastrointestinal (GI) transit and colonic propulsion (Coates et al. 2006 Neurogastroenterol Motil 18:464-471). In humans, morphine and related opiate drugs are known to cause constipation. They act on neurons in the myenteric plexus as mu-opioid receptor agonists, leading to decreased GI motility and propulsion. The proportion of the US adult population who take opiates chronically (non-cancer patients), is roughly 4%. In an observational study of patients on opiates for chronic pain, 47% experienced constipation (Tuteja et al. […] Neurogastroenterol Motil 22: 424-430). There is evidence that chronic constipation can predispose individuals to benign GI neoplasms and colorectal cancer. […]
Several drug toxicities affecting GI motility (e.g. causing constipation or diarrhea) in cancer are also related to or associated with other immune imbalances and nutritional imbalances. […] Colonic propulsion was assessed as follows: thirty minutes post morphine dosing, a 3 mm glass bead was inserted at a depth of 2 cm into the distal colon through each mouse's anus. […]

C=CCN1CC[C@]23c4c5ccc(O)c4O[C@H]2C(=O)CC[C@@]3(O)[C@H]1C5 [naloxone]
responders (reduction in expulsion of >25% of maximum expulsion time, 1350 seconds) (1% in drinking water for 11 days (naloxone 30 minutes prior to morphine), morphine 3 mg/kg subcutaneously): 6/8 | effect in this mouse model of colonic propulsion (third analysis, responder versus non-responder animals, cutoff 1800 seconds): reversing the effects of morphine
